The values below come from US20260091068A1, “METHODS FOR TREATING AND PREVENTING DISEASES” (priority 2017, published 2026).

The subject of experiment [1] is bacteriophages from swabs of hands, masks and work surfaces. The experiment in a line: Bacterial DNA in blood (16S RT-PCR) after water with phages from treated objects and surfaces (Example 5). Format: in vivo. As to conditions: average of 3 experiments. Here is the method:
Fourteen days after including any product enriched with bacteriophage mixture into the mice diet, the mice blood was aseptically taken and bacterial DNA content in the bloodstream was evaluated. Increased DNA content in blood indicates an increase of intestinal permeability reflecting increased translocation of microorganisms from the gastro-intestinal tract into the systemic circulation. (See Deitch E. A., et al. Effect of hemorrhagic shock on bacterial translocation, intestinal morphology, and intestinal permeability in conventional and antibiotic-decontaminated rats. Critical care medicine 18.5 (1990), 529-536). DNA was isolated with a kit for the isolation of nucleic acids DNAQamp Qiagen. Quantitative determination of DNA was carried out by RT-PCR using universal bacterial primers for 16S rRNA (upb2 with a universal FAM-probe for bacteria: (5FAM) aat acg ttc ccg ggt ctt gta cac acc gcc cgt cac act att (3′RTQ1) (SEQ ID NO: 6) and DG74 5′aac tgg agg aag gtg ggg at 3′ (SEQ ID NO: 7)) on Bio-Rad CFX96 amplifier. Reaction conditions: 95° C.—5 min. 45 cycles 95° C.—15 sec, 60° C.—30 sec, fluorescence reading.
Bacteriophages were obtained from the swabs from hands and masks of medical staff and work surfaces in surgical clinics. The hands, masks and surfaces were subjected to various kinds of treatments in order to reduce the amount of phages on them. After the treatment, phages were isolated by the Gratia's method (Kropinski et al. “Enumeration of bacteriophages by double agar overlay plaque assay.” Bacteriophages: Methods and Protocols, Volume 1: Isolation, Characterization, and Interactions, Humana Press, 2009, vol. 501, 69-76). Test material (swabs) was filtered through 0.45 μm Millipore membrane filters. The resulting filtrate was incubated at 60° C. for 60 minutes to inactivate bacteria and was added to 100 μL of water. The resulting solutions were given to animals with water, and the development of an increased intestinal permeability was evaluated as described in Example 4, above. The animals were divided into the following treatment groups:
Group “PHG”: water with the addition of bacteriophages obtained from objects and surfaces treated with a 0.1% (1000 mg/L) polyhexamethylene guanidine derivative preparation. The polyhexamethylene guanidine preparation used in this treatment was prepared by condensation polymerization of hexamethylenediamine with guanidine salt and hydrazine hydrate, as described in U.S. Provisional Pat. Appl. No. 62/510,446, U.S. Pat. No. 8,993,712, U.S. Pat. Appl. Pub. No. 2017/0013838 and Int. Pat. Appl. Pub. No. WO2016/118043.
Group “Photocatalyst”: water with the addition of bacteriophages obtained from objects and surfaces treated with TiO2 and activated by ultraviolet radiation. […]

In experiment [2] the test system is bacteriophages isolated from the feces of obese mice. Put plainly: Body weight after 21 weeks of drinking water with phages from obese mice (Example 6). Conditions: treated drinking water with phages from obese mice; standard diet. Format: in vivo. As for the experimental part: To assess a possibility of preventing changes in the GI microbiota leading to obesity by limiting bacteriophage entry from the environment, bacteriophages were isolated from the feces of Group #1 mice in which obesity was modeled. The obtained phages were added to drinking water of mice (age 12 weeks) from Group #2 for 21 weeks. The diet of the animals remained standard, i.e., not a high fat diet. The mice in Group #2 were divided into the following treatment groups:
Group “Filtration”: water with the addition of bacteriophages, filtered through 0.45 μm Millipore membrane filters.
Group “Pascalization”: water with the addition of bacteriophages, treated with high pressure (340 MPa).
Group “Prototype”: water with the addition of bacteriophages, treated with potassium nitrate.

The test system of experiment [3] is bacteriophages isolated from waste water. Put plainly: Bacterial DNA in blood (16S RT-PCR) after diet with phage-enriched, treated products (Example 4). Format: in vivo, Wistar rats. As to conditions: blood after 14 days, average of 3 experiments. Here is the method: As a source for the isolation of bacteriophages, waste water from canalization was used. The phages were isolated by Gratia's method (Kropinski et al. “Enumeration of bacteriophages by double agar overlay plaque assay.” Bacteriophages: Methods and Protocols, Volume 1: Isolation, Characterization, and Interactions, Humana Press, 2009, vol. 501, 69-76). Test material (waste water) was filtered through 0.45 μm Millipore membrane filters. The resulting filtrate was incubated at 60° C. for 60 minutes to inactivate bacteria and was added to water or products (e.g., milk, yogurt, curd, cheese, minced meat, minced chicken, fish, fruit mix, vegetable mixture) in 100 μL volume. The resulting food products enriched with phages were included in the mice diet. […]
Fourteen days after including any product enriched with bacteriophage mixture into the mice diet, the mice blood was aseptically taken and bacterial DNA content in the bloodstream was evaluated. […] Quantitative determination of DNA was carried out by RT-PCR using universal bacterial primers for 16S rRNA (upb2 with a universal FAM-probe for bacteria: (5FAM) aat acg ttc ccg ggt ctt gta cac acc gcc cgt cac act att (3′RTQ1) (SEQ ID NO: 6) and DG74 5′aac tgg agg aag gtg ggg at 3′ (SEQ ID NO: 7)) on Bio-Rad CFX96 amplifier. […] 45 cycles 95° C.—15 sec, 60° C.—30 sec, fluorescence reading.

For the next experiment, the system named is hairless mice. The experiment in a line: General skin elasticity after 36 weeks of water application (Example 7). As to conditions: vs untreated left part of the back. Format: in vivo. Here is the method:
In the experiment, hairless mice, 5 males and 5 females, (C57BL/6 albino/hairless, The Jackson Laboratories) of both sexes were used. Starting from 4 weeks of age, animals were daily treated with tap water or mineral water from artesian source, the water applied on the right half of the back. After 36 weeks, skin condition parameters were evaluated (SoftPlusCPU (Callegaris.p.a.)) in the application area, compared with the untreated left part of the back. Animals were divided into the following treatment groups:
Group “Filtration”: water filtered through 0.22 μm Millipore membrane filters.
Group “Electron”: water treated with an electron flow.
Group “Prototype”: water treated with potassium nitrate.

Regarding `O=[O+][O-]` [Ozone, ozone], in experiment [1], the “Number of cycles during which bacterial DNA appears (Cq)” value (“Number” for short) is listed as 27.74 cycles.

Take `OO` [Peroxide, H2O2]: in experiment [1], the “Number” value was 31.65 cycles.

In experiment [2], `O=[N+]([O-])[O-].[K+]` [Prototype, potassium nitrate] came in with an Animal body weight after 21 weeks of 46 g. Also, the “Number” value is 17.92 cycles in experiment [1], 19.79 cycles in experiment [3] (phages added to cheese) and 17.28 cycles in experiment [3] (phages added to water). Moreover, the entries for the “Change in parameter of general skin elasticity” value in the experiment with hairless mice (Tap water) and with hairless mice (Well water) were −42.9% and −41.4%, respectively.

For `[Cu+2]` [Metals, Cu^2+], the “Number” value in experiment [1] came out at 29.51 cycles.
